Data taken from PubChem BioAssay AID1918995 (Molecular Pharmacology Branch, DTP, NCI, 2023).
Where “and” joins values, the source holds several entries; their conditions need not be identical. Equal values may be shown once. Each block holds one compound with its values, some of them ahead of it.

Tested on: 324938-238-R-J1-PDC complex spheroid growth, % test/control
Experiment: Anticancer human tumor 324938-238-R-J1-PDC patient-derived bladder carcinoma cell line growth inhibition [AhR]
Conditions: for viability, T/C: stronger effect = lower value
Text: Multicellular complex tumor spheroid response to aryl hydrocarbon receptor antagonists in combination with a variety of drugs and investigational agents in selected tumor cell lines
The current study was undertaken to assess response to aryl hydrocarbon receptor antagonists in combination with standard-of-care drugs and investigational agents in solid tumor complex spheroid models. Complex spheroids include a stromal component modeled by human endothelial cells (HUVEC) and fibroblasts modeled by human mesenchymal stem cells (MSCs). The concentration ranges selected for each drug and investigational agent were based upon clinically achievable concentrations if the clinical Cmax of the agent was known.
Compounds. The drugs and investigational agents: BAY 2416964 (NSC825713), GNF351 (NSC835774), CH-223191 (NSC835775), CPI-455 (NSC825282), aza-TdCyd (NSC777586), decitabine (NSC127716), belinostat (NSC758774), entinostat (NSC756642), pevonedistat (NSC761192), tazemetostat (NSC777109), talazoparib (NSC765396), olaparib (NSC753686), selinexor (NSC780203), nedisertib (M3814, NSC802822), bortezomib (NSC756655), venetoclax (NSC766270), doxorubicin (NSC123127), elimusertib (BAY189344, NSC800525), ceralasertib (AZD6738, NSC777638), TAK-243 (NSC785004), alisertib (NSC759677), etoposide (NSC141540), topotecan (NSC609699), eribulin (NSC707389), gemcitabine (NSC613327), carboplatin (NSC241240), cisplatin (NSC119875), and SN-38 (NSC673596) were obtained from the National Cancer Institute (NCI) Developmental Therapeutics Program Chemical Repository (32). The FDA-approved anticancer drug set is available from the Developmental Therapeutics Program at https://dtp.cancer.gov/organization/dscb/obtaining/available plates.htm. […] The stock solutions were prepared in dimethyl sulfoxide (DMSO, Sigma-Aldrich, St. Louis, MO, cat. D2650), except for the platinum compounds which were prepared in saline (Quality Biological, Gaithersburg, MD, cat. 114-055-101), at 800-fold the tested concentration and stored at -70 degrees C prior to their use. All drugs and investigational agents were tested over a range starting from a high concentration at or near the clinical Cmax and decreasing in half-log increments. If the clinical Cmax for an agent had not been determined, the highest concentration tested was 10 microM (Table 1).
Cell Culture. All cells were maintained in an incubator at 37 degrees C and 5% CO2 with 95% humidity. The PDC lines were cultured according to standard operating procedures established by the NCI PDMR (https://pdmr.cancer.gov). Briefly, all PDCs were thawed and cultured in Matrigel-coated flasks prepared with a working solution of 1X Ham's F-12 nutrient mix, without supplementation (Invitrogen, Waltham, MA, cat. 11765054), 100 U/mL penicillin-streptomycin (Invitrogen, cat. 15140122), and 2.5% Matrigel (Corning Inc., Corning, NY, cat. 354248) for the first three passages. All PDCs were cultured in complete DMEM/F-12 media containing advanced DMEM/F-12 (Invitrogen, cat. 12634028), 4.9% defined fetal bovine serum, heat inactivated (HyClone Laboratories Inc., Logan, UT, cat. SH30070.03HI), 389 ng/mL hydrocortisone (Sigma-Aldrich, cat. H4001), 9.7 ng/mL human EGF recombinant protein (Invitrogen, cat. PHG0313), 23.4 microg/mL adenine (Sigma-Aldrich, cat. A2786), 97.3 U/mL penicillin-streptomycin (Invitrogen, cat. 15140122), 1.9 mM L-glutamine (Invitrogen, cat. 25030081), and 9.7 microM Y-27632 dihydrochloride (Tocris Bioscience, Bristol, United Kingdom, cat. 1254). The PDCs were cultured in complete DMEM/F12 media without 10 microM Y-27632 dihydrochloride for at least two passages prior to the screen. The established cell lines NCI-H1341 and […] were cultured in DMEM/F-12, HEPES (Invitrogen, cat. 11330032), 5% defined fetal bovine serum (HyClone Laboratories Inc., cat. SH30070.03), ITS premix universal culture supplement [insulin (5 microg/mL), transferrin (5 microg/mL), and selenious acid (5 ng/mL)] […]
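Note: spheroids exposed to agents for seven days before viability read.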

IC50 (curve of compound): > 100 nM and 21.3 nM and 20.1 nM
Structure (SMILES): CC[C@@]1(O)C(=O)OCc2c1cc1n(c2=O)Cc2cc3c(CN(C)C)c(O)ccc3nc2-1
viability, T/C (compound 0.000316 µM): 96% and 93.1% and 103%
viability, T/C (compound 0.001 µM): 96.2% and 106% and 108%
viability, T/C (compound 0.00316 µM): 66.5% and 84.8% and 87.8%
viability, T/C (compound 0.01 µM): 82.1% and 74.2% and 73.3%
viability, T/C (compound 0.0316 µM): 125% and 37.5% and 35.2%
viability, T/C (compound 0.1 µM): 106% and 17.9% and 16.8%

IC50 (curve of first compound, second compound 0.1 µM): 277 nM
IC50 (curve of first compound, second compound 0.316 µM): 379 nM
IC50 (curve of first compound, second compound 1 µM): 245 nM
IC50 (curve of first compound, second compound 3.16 µM): 309 nM
IC50 (curve of first compound, second compound 10 µM): 324 nM
Structure (SMILES): CC1COCCN1c1cc(-c2ccnn2C)c2ccnc(-c3ccn[nH]3)c2n1 (configuration not stated) + Cc1ccccc1N=Nc1ccc(NC(=O)c2ccnn2C)c(C)c1
viability, T/C (second compound 0.1 µM, first compound 0.00316 µM): 102%
viability, T/C (second compound 0.1 µM, first compound 0.01 µM): 104%
viability, T/C (second compound 0.1 µM, first compound 0.0316 µM): 102%
viability, T/C (second compound 0.1 µM, first compound 0.1 µM): 74.7%
viability, T/C (second compound 0.1 µM, first compound 0.316 µM): 48.8%
viability, T/C (second compound 0.1 µM, first compound 1 µM): 32.7%
viability, T/C (second compound 0.316 µM, first compound 0.00316 µM): 104%
viability, T/C (second compound 0.316 µM, first compound 0.01 µM): 90.8%
viability, T/C (second compound 0.316 µM, first compound 0.0316 µM): 88.8%
viability, T/C (second compound 0.316 µM, first compound 0.1 µM): 71.5%
viability, T/C (second compound 0.316 µM, first compound 0.316 µM): 53.6%
viability, T/C (second compound 0.316 µM, first compound 1 µM): 30.4%
viability, T/C (second compound 1 µM, first compound 0.00316 µM): 95%
viability, T/C (second compound 1 µM, first compound 0.01 µM): 95.4%
viability, T/C (second compound 1 µM, first compound 0.0316 µM): 87.6%
viability, T/C (second compound 1 µM, first compound 0.1 µM): 65.8%
viability, T/C (second compound 1 µM, first compound 0.316 µM): 46.6%
viability, T/C (second compound 1 µM, first compound 1 µM): 31.5%
viability, T/C (second compound 3.16 µM, first compound 0.00316 µM): 78.8%
viability, T/C (second compound 3.16 µM, first compound 0.01 µM): 88.3%
viability, T/C (second compound 3.16 µM, first compound 0.0316 µM): 73.8%
viability, T/C (second compound 3.16 µM, first compound 0.1 µM): 67.5%
viability, T/C (second compound 3.16 µM, first compound 0.316 µM): 49.8%
viability, T/C (second compound 3.16 µM, first compound 1 µM): 31.6%
viability, T/C (second compound 10 µM, first compound 0.00316 µM): 74.3%
viability, T/C (second compound 10 µM, first compound 0.01 µM): 81.2%
viability, T/C (second compound 10 µM, first compound 0.0316 µM): 71%
viability, T/C (second compound 10 µM, first compound 0.1 µM): 64.4%
viability, T/C (second compound 10 µM, first compound 0.316 µM): 50.8%
viability, T/C (second compound 10 µM, first compound 1 µM): 35%
